Assay results reported in US20240199604A1, “SUPRAMOLECULAR POLYMER THERAPEUTICS AND DIAGNOSTICS” (The Regents of the University of California, priority 2022, published 2024).

Test system: not listed separately
Assay: Parallel Artificial Membrane Permeability Assay (PAMPA)
Assay type: in vitro ADME
Conditions: 200 uM test compound, 4 hr
Protocol: Parallel Artificial Membrane Permeability Assay (PAMPA). 5 uL of 1% lecithin (VWR 0579) dissolved in n-dodecane (Sigma Aldrich D221104) was applied to each well of a MultiScreen IP PAMPA filter plate (Millipore MAIPSWU10) and allowed to equilibrate for 5 minutes. 300 uL of PBS was added to the acceptor plate and 150 uL of 200 uM test compound dissolved in PBS and 30% ethanol was added to the donor wells before incubating the donor plate in the acceptor plate for 4 hr at 500 rpm. 100 uL was sampled from the donor and acceptor wells and the concentrations were measured by liquid chromatography-mass spectrometry (SCIEX 4500) or UV-VIS plate reader (BMG).

| SMILES | PAMPA: P_app pH 7.4 |
| --- | --- |
| CNc1nc(=O)n(-c2nc(-c3cccc(Cl)c3)oc2-c2ccc(Cl)c(F)c2)cc1F [Compound 1] | >50.0 ×10e−6 cm/sec |
| CCc1ccccc1-c1nn(-c2ccc(F)cc2)c2nc(C(=O)NC)ncc12 [Compound 245] | >50 ×10e−6 cm/sec |
| CNC(=O)c1ncc2c(-c3ccccc3)nn(-c3ccc(F)cc3)c2n1 [Compound 246] | >50 ×10e−6 cm/sec |
| CNC(=O)c1ncc2c(-c3ccc(F)cc3)nn(Cc3ccccc3)c2n1 [Compound 250] | >50 ×10e−6 cm/sec |
| CNC(=O)c1ncc2c(-c3cc(F)cc(F)c3)nn(Cc3ccccc3)c2n1 [Compound 252] | >50 ×10e−6 cm/sec |
| CC(=O)Nc1ncc2c(-c3ccccc3C)nn(Cc3ccccc3)c2n1 [Compound 266] | >50 ×10e−6 cm/sec |
| CCn1nc(-c2ccccc2)c2cnc(NC(C)=O)nc21 [Compound 277] | >50 ×10e−6 cm/sec |
| CC(=O)Nc1ncc2c(-c3ccccc3)nn(Cc3ccccn3)c2n1 [Compound 278] | >50 ×10e−6 cm/sec |
| CC(=O)Nc1ncc2c(-c3ccccc3)nn(CC3CCCCC3)c2n1 [Compound 280] | 19.5 ×10e−6 cm/sec |

Biological target: T1, YFP-tagged 0N4R-Tau P301S aggregates seeded with 416-AD11A lysate (Homo sapiens, UniProt P10636, P618S)
T1 construct: C-terminally YFP-tagged full length 0N4R-Tau; expressed in transfected cells
T1 sequence (P10636 1-383 isoform P10636-6 P243S): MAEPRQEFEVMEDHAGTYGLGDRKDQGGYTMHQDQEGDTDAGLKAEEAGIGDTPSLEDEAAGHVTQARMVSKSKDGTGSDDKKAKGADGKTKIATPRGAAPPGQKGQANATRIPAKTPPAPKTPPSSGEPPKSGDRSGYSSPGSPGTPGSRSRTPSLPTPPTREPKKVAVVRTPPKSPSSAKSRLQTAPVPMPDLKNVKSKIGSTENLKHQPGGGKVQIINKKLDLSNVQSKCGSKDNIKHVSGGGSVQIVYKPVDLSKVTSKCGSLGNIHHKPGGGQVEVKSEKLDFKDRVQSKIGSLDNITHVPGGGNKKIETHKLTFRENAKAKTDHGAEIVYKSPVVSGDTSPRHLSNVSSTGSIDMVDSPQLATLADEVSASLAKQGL
Assay: Tau-AD high throughput screening (counter screen) in T24 cells
Assay type: cell-based
Conditions: T24 cells seeded with 416-AD11A lysate
Protocol: A fragment of the Middle Tempral Gyrus (MTG) from Alzheimer's Disease (AD) patient 2217 was resuspended in 9 volumes of PBS (ml/g of brain) and homogenized 3×12 seconds using a probe homogenizer (Thomas Scientific) with disposable Omni Tip plastic homogenizing probes (Thomas Scinetific Cat No 3409Y77) to generate a 10% brain homogenate (10% AD11-BH). The 10% AD11-BH was clarified of insoluble debris by centrifugation at 800×g for 5 minutes. The resulting supernatant was collected and the protein concentration of this clarified BH (AD11-CBH) was determined by bicinchoninic acid assay (BCA) (Thermo Fisher Cat No. 23227). HEK293 cells stably expressing a C-terminally Clover-tagged truncated 4R-Tau^243-382 transgene containing the P301L and V337M mutations and a C-terminally Ruby-tagged truncated 3R-Tau^243-382 transgene containing the L266V and V337M mutations (128/139 cells) were transfected with the AD11-CBH using lipofectamine 2000 (LF2K) (Thermo Fisher Cat No. 11668500). Briefly, 0.32 μl of LF2K were diluted in 5 μl Opti-MEM (Thermo Scientific Cat No 31985070) per well of a 384-well plate and incubated for 5 min at room temperature (RT). This mixture was added to 0.32 μg of AD11-CBH diluted in 5 μl of PBS per well of a 384-well plate and vortex briefly. The transfection mixture was incubated at room temperature for 90 min. The transfection complexes were subsequently added to a single well of a 384-well plate containing 3500 128/139 cells. After 3 days the cells were harvested, counted and plated at a density of 1 cell/well in a 96-well plate. A clonal cell line containing Clover and Ruby positive Tau aggregates was selected and termed 416-AD11A cells. Following the expansion of these 416-AD11A cells, a cell lysate was prepared by freeze/thaw. The cells from a confluent T175 flask were harvested in 1 ml of PBS containing 1× protease inhibitor cocktail by scraping. The cell suspension was subjected to 4 cycles of freezing in liquid nitrogen for 5 minutes followed by thawing at 37° C. for 5 minutes. The resulting cell lysate was centrifuged at 2000 RPM for 10 minutes to remove the cell debris and the protein concentration of the resulting 416-AD11A lysate was determined by BCA assay and aliquots frozen for future use.
HEK293 cells stably expressing C-terminally YFP-tagged full length 0N4R-Tau carrying a P301S mutation (T24 cells) are plated at a density of 4000 cells per well of a 384-well black walled, clear bottom plate (Greiner Cat No 5678-1091Q) in 60 μl of complete DMEM (DMEM (Corning Cat No 10-013-CV), 10% FBS (VWR Cat No 97068-085, 0.5% Penicilin/streptomycin (Gibco Cat No 15140-122)) containing 0.1 μg/ml Hoechst Dye (Thermo Scientific Cat No H3570). Transfection complexes are prepared by diluting 0.15 μg of 416-AD11A lysate or HEK lysate in 5 μl of PBS per well to be transfected and 0.15 μl of Lipofectamine 2000 (LF2K) (ThermoFisher Cat No 11668500) in 5 μl of Opti-MEM per well to be transfected in separate tubes. The pre-diluted 416-AD11A or HEK lysates and LF2K are subsequently mixed and allowed to incubate for 90 minutes at RT. A 10 μl aliquot of the 416-AD11A or HEK transfection complexes is added to the appropriate wells of the 384-well plate containing the T24 cells using the Bravo liquid handling platform (Agilent). Wells A23-P24 of the 384-well plate are transfected with HEK lysate to act as a reference point for spontaneous aggregation of 0N4R^P301S and for transfection related toxicity. The dilution of test compounds is performed using the Bravo liquid handling platform (Agilent). The control is DMSO in the absence of any test compound. Briefly, 1 μl of each test compound (5 mM stock) in the 384-well test plate was transferred to a 384-well plate (Greiner Cat No 781280) containing 61.5 μl of complete DMEM to generate a working stock of compounds at 80 μM. […]

| SMILES | AD Tau Aggregates (% control) |
| --- | --- |
| Cc1cc(-c2nc(-n3cc4ccn(C5CC5)c4nc3=O)c(-c3ccc(F)c(F)c3)o2)ncc1F [Compound 234] | 85 % control |
| Cc1ccnn1-c1nc(-n2cc3ccn(C(F)(F)F)c3nc2=O)c(-c2ccc(F)cc2)o1 [Compound 240] | 95 % control |
| Cc1ccn(-c2nc(-n3cc4ccn(C(F)(F)F)c4nc3=O)c(-c3ccc(F)cc3)o2)n1 [Compound 241] | 98 % control |
| O=c1nc2c(ccn2C(F)(F)F)cn1-c1nc(N2Cc3ccccc3C2)oc1-c1ccc(F)cc1 [Compound 242] | 99 % control |
| CNC(=O)c1ncc2c(-c3ccccc3Cl)nn(-c3ccc(F)cc3)c2n1 [Compound 244] | 100 % control |
| CCc1ccccc1-c1nn(-c2ccc(F)cc2)c2nc(C(=O)NC)ncc12 [Compound 245] | 120 % control |
| CNC(=O)c1ncc2c(-c3ccccc3)nn(-c3ccc(F)cc3)c2n1 [Compound 246] | 120 % control |
| CNC(=O)c1ncc2c(-c3ccccc3)nn(Cc3ccccc3)c2n1 [Compound 248] | 95 % control |
| CNC(=O)c1ncc2c(-c3cc4c(cnn4C)cc3F)nn(Cc3ccccc3)c2n1 [Compound 253] | 96 % control |
| CNC(=O)c1ncc2c(-c3cccc4c3OC(F)(F)O4)nn(Cc3ccccc3)c2n1 [Compound 254] | 100 % control |
| CNC(=O)c1ncc2c(-c3ccc(F)cc3)nn(CC3CCCCC3)c2n1 [Compound 258] | 110 % control |
| CNC(=O)c1ncc2c(-c3ccc(F)cc3)nn(Cc3ccnc(F)c3)c2n1 [Compound 259] | 99 % control |
| CNC(=O)c1ncc2c(-c3ccc(F)cc3)nn(Cc3cccc(F)c3)c2n1 [Compound 260] | 95 % control |
| CNC(=O)c1ncc2c(-c3ccc(F)cc3)nn(Cc3ccc(F)cc3)c2n1 [Compound 261] | 87 % control |
| CC(=O)Nc1ncc2c(-c3ccccc3)nn(C(C)c3ccccc3)c2n1 (stereo not drawn) [Compound 265] | 110 % control |
| CC(=O)Nc1ncc2c(-c3ccccc3C)nn(Cc3ccccc3)c2n1 [Compound 266] | 98 % control |
| CC(=O)Nc1ncc2c(-c3ccccc3)nn(Cc3cncc(F)c3)c2n1 [Compound 267] | 91 % control |
| CCC(=O)Nc1ncc2c(-c3ccccc3)nn(Cc3ccc(OC)cc3)c2n1 [Compound 269] | 100 % control |
| COC(=O)Nc1ncc2c(-c3ccccc3)nn(-c3ccccc3)c2n1 [Compound 274] | 94 % control |
| CC(=O)Nc1ncc2c(-c3ccccc3)nn(Cc3ccncc3)c2n1 [Compound 279] | 92 % control |
| CC(=O)Nc1ncc2c(-c3ccccc3)nn(CC3CCCCC3)c2n1 [Compound 280] | 90 % control |
